The record followed here is PubChem BioAssay (NCI).

Among the test systems are HOP-92 NSCLC; UACC-62 melanoma; OVCAR-5 ovarian; OVCAR-4 ovarian; NCI-H23 lung; NCI/ADR-RES ovarian; RPMI-8226 leukemia; SNB-75 CNS; RXF 393 renal; EKVX NSCLC.
Common to all, as to test: inhibition of tumour cell growth, NCI panel, 48 h

Each structure is given as a SMILES string. Several values for one entry are separate records, joined by “and”; a condition that tells them apart may be missing. Equal values may be shown once.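 96-well plates; 48 h exposure; 5 concentrations. Endpoints by linear interpolation between flanking doses. Not reached: highest tested concentration assigned. GI50 marks 50% less growth. TGI marks complete inhibition of growth.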

With `CCN1/C(=C/C(C)=C/c2sc3ccc4ccccc4c3[n+]2CC)Sc2ccc3ccccc3c21`, the GI50 in the test on HOP-92 NSCLC was 0.163 µM; in the test with UACC-62 melanoma, 0.31 µM; in the test on OVCAR-5 ovarian, 0.486 µM; with OVCAR-4 ovarian, 0.138 µM; in the test with NCI-H23 lung, 0.108 µM; with NCI/ADR-RES ovarian it was 0.964 µM. Moreover, the GI50 was below 0.0134 µM in the test on RPMI-8226 leukemia and 0.205 µM with SNB-75 CNS. For the same molecule, the TGI in the test on HOP-92 NSCLC turned out to be 0.612 µM; in the test with UACC-62 melanoma, 1.8 µM; in the test on OVCAR-5 ovarian, 1.93 µM; with OVCAR-4 ovarian, 1.26 µM; with NCI-H23 lung it was 1.19 µM; in the test with NCI/ADR-RES ovarian it was 5.61 µM. Besides, the TGI in the test with RPMI-8226 leukemia amounted to 0.131 µM; with SNB-75 CNS it was 0.761 µM.
Turning to `Clc1cc(Br)ccc1-c1ccc(CNCC2CCNCC2)o1`, the GI50 was 1.4 µM in the test on HOP-92 NSCLC; 1.69 µM with UACC-62 melanoma; 1.89 µM in the test with OVCAR-5 ovarian; 1.86 µM in the test on OVCAR-4 ovarian; 3.43 µM with NCI-H23 lung; 3.13 µM in the test with NCI/ADR-RES ovarian. Besides, the GI50 is 1.86 µM with RPMI-8226 leukemia and 1.26 µM with SNB-75 CNS. The TGI was 4.9 µM in the test on HOP-92 NSCLC; 3.21 µM in the test with UACC-62 melanoma; 3.93 µM with OVCAR-5 ovarian; 4.49 µM in the test on OVCAR-4 ovarian; 13.6 µM with NCI-H23 lung; 9.69 µM in the test on NCI/ADR-RES ovarian. For the same molecule, the TGI in the test on RPMI-8226 leukemia came out at 4.46 µM; in the test with SNB-75 CNS it was 2.88 µM.
For the molecule `Oc1nc(N2CCOCC2)sc1/C=C1\C=Nc2ccccc21`, the GI50 with UACC-62 melanoma, in the test with OVCAR-5 ovarian, with OVCAR-4 ovarian, in the test with NCI-H23 lung, in the test on NCI/ADR-RES ovarian and in the test with RPMI-8226 leukemia was above 100 µM in each case. Further, the GI50 was above 100 µM with RXF 393 renal, 64.8 µM in the test on SNB-75 CNS and above 100 µM in the test with EKVX NSCLC. The TGI in the test with UACC-62 melanoma, with OVCAR-5 ovarian, with OVCAR-4 ovarian, in the test with NCI-H23 lung, with NCI/ADR-RES ovarian and in the test with RPMI-8226 leukemia was above 100 µM throughout. In addition, the TGI in the test on RXF 393 renal, in the test with SNB-75 CNS and in the test with EKVX NSCLC was above 100 µM throughout.
Consider `CC(=O)OCC1OC(SC2=N/C(=C\c3ccc(Br)s3)C(=O)N2c2ccccc2)C(OC(C)=O)C(OC(C)=O)C1OC(C)=O` (stereo not given), for which the TGI with UACC-62 melanoma was above 100 µM; with OVCAR-5 ovarian, above 100 µM; in the test on OVCAR-4 ovarian, above 100 µM; in the test on NCI-H23 lung it was above 100 µM; in the test with NCI/ADR-RES ovarian it was above 100 µM; with RPMI-8226 leukemia, > 100 µM and 61 µM. The TGI in the test on RXF 393 renal is 57.2 µM and > 100 µM; in the test with SNB-75 CNS it was 61.4 µM and > 100 µM; in the test with EKVX NSCLC, above 100 µM. The GI50 with RPMI-8226 leukemia was 37.7 µM and 7.96 µM; in the test with SNB-75 CNS, 25.1 µM and > 100 µM.
As for `CCCCCN(CCCCC)CCC[C@@H](C)[C@H]1CC[C@H]2[C@@H]3[C@H](OCCCN)C[C@@H]4C[C@H](OCCCN)CC[C@]4(C)[C@H]3C[C@H](OCCCN)[C@]12C`, the GI50 is 0.68 µM in the test on HOP-92 NSCLC; 1.56 µM in the test on UACC-62 melanoma; 10.3 µM in the test with OVCAR-5 ovarian; 14.3 µM in the test with OVCAR-4 ovarian; 4.36 µM with NCI-H23 lung; 12.1 µM in the test on NCI/ADR-RES ovarian. Moreover, the GI50 with RPMI-8226 leukemia is 1.84 µM; with RXF 393 renal, 11.9 µM; in the test with SNB-75 CNS it was 7.52 µM. The TGI with HOP-92 NSCLC was determined as 6.45 µM; with UACC-62 melanoma, 6.41 µM; in the test on OVCAR-5 ovarian, 23.4 µM; in the test with OVCAR-4 ovarian, 32.6 µM; in the test on NCI-H23 lung, 20.6 µM; with NCI/ADR-RES ovarian, 37.7 µM. Also, the TGI in the test on RPMI-8226 leukemia came out at 4.71 µM; in the test with RXF 393 renal, 32.7 µM; in the test with SNB-75 CNS, 22.8 µM.
Take `COc1cc2c3c(n(CCCN=[N+]=[N-])c(=O)c2cc1OC)-c1ccccc1C3=O`: the GI50 in the test with HOP-92 NSCLC is 7 µM; with UACC-62 melanoma, 2.63 µM; in the test with OVCAR-4 ovarian, 22.6 µM; in the test with NCI-H23 lung it was 3.23 µM; in the test on NCI/ADR-RES ovarian it was 4.59 µM; with RPMI-8226 leukemia, 6.19 µM. Also, the GI50 is 2.53 µM in the test with SNB-75 CNS and above 100 µM in the test with EKVX NSCLC. The TGI in the test on HOP-92 NSCLC is 68.9 µM; with UACC-62 melanoma, 27.6 µM; in the test with OVCAR-4 ovarian it was above 100 µM; in the test with NCI-H23 lung it was 21.8 µM; in the test with NCI/ADR-RES ovarian, 75.2 µM; with RPMI-8226 leukemia, above 100 µM. Moreover, the TGI in the test with SNB-75 CNS is 8.49 µM; in the test with EKVX NSCLC it was above 100 µM.
As to `COc1ccc(C2c3ccc4ccccc4c3Oc3ncn(CCCn4ccnc4)c(=N)c32)cc1OC` (stereo not given), the GI50 is 1.3 µM with HOP-92 NSCLC; 1.9 µM in the test on UACC-62 melanoma; 4.55 µM in the test with OVCAR-5 ovarian; 9.65 µM with OVCAR-4 ovarian; 6.49 µM in the test on NCI-H23 lung; 3.96 µM in the test with NCI/ADR-RES ovarian. In addition, the GI50 with RPMI-8226 leukemia is 2.81 µM; with RXF 393 renal it was 1.78 µM; in the test with SNB-75 CNS it was 2.12 µM. The TGI with HOP-92 NSCLC was 6.64 µM; in the test with UACC-62 melanoma, 3.74 µM; in the test with OVCAR-5 ovarian it was 17.8 µM; with OVCAR-4 ovarian, 26.4 µM; in the test on NCI-H23 lung, 22.4 µM; in the test with NCI/ADR-RES ovarian, 17.4 µM. The results for the TGI with RPMI-8226 leukemia, with RXF 393 renal and in the test on SNB-75 CNS were 8.58 µM, 4.64 µM and 8.13 µM, respectively.
As for `COc1ccc(C)c2sc(N(Cc3cccnc3)C(=O)c3ccc(C#N)cc3)nc12`, the GI50 with HOP-92 NSCLC is 20.3 µM; in the test on UACC-62 melanoma, 31.1 µM; in the test on OVCAR-5 ovarian it was 47.5 µM; with NCI-H23 lung it was 43.5 µM; in the test on NCI/ADR-RES ovarian, 37.7 µM; in the test on RPMI-8226 leukemia it was 26.1 µM. Further, in the test with RXF 393 renal, the GI50 is 26.1 µM. Further, the TGI in the test on HOP-92 NSCLC, in the test with UACC-62 melanoma, with OVCAR-5 ovarian, in the test with NCI-H23 lung, with NCI/ADR-RES ovarian and in the test with RPMI-8226 leukemia was above 100 µM throughout. For the same molecule, the TGI with RXF 393 renal was determined as 99.8 µM.
As for `CCCCCCCCCCCCCCCCn1cc[n+](C)c1`, the GI50 in the test with HOP-92 NSCLC was 0.34 µM; in the test with UACC-62 melanoma, 0.538 µM; in the test on OVCAR-5 ovarian, 0.329 µM; in the test on OVCAR-4 ovarian it was 0.372 µM; with NCI-H23 lung it was 0.287 µM; in the test on NCI/ADR-RES ovarian, 1.95 µM. The GI50 in the test on RPMI-8226 leukemia was 0.024 µM; in the test on RXF 393 renal, 0.252 µM; in the test with EKVX NSCLC, 0.422 µM. Besides, the TGI worked out at 1.68 µM with HOP-92 NSCLC; 1.88 µM in the test on UACC-62 melanoma; 1.64 µM with OVCAR-5 ovarian; 17.8 µM in the test with OVCAR-4 ovarian; 1.87 µM in the test on NCI-H23 lung; 18.4 µM in the test on NCI/ADR-RES ovarian. Also, the TGI stood at 0.19 µM with RPMI-8226 leukemia, 0.907 µM in the test on RXF 393 renal and 1.96 µM in the test on EKVX NSCLC.
